# Target: T1, GPR119 receptor (Mesocricetus auratus, UniProt A0A1U8CD06)
# T1 construct: which endogenously express the GPR119 receptor; host or cells: HIT-T15 hamster pancreatic islet cells
# T1 sequence (A0A1U8CD06 1-334): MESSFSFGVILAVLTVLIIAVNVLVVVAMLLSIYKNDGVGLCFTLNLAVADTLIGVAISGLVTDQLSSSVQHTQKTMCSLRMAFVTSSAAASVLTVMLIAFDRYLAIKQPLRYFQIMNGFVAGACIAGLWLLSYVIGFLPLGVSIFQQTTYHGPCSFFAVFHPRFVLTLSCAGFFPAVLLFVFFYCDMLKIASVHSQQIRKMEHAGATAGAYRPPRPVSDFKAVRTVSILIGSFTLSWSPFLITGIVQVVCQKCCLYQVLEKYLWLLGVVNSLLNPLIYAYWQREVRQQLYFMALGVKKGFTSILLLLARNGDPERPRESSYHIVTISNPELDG
# Test: cAMP assay in HIT-T15 hamster pancreatic islet cells (functional agonist activity)
# Assay type: cell-based
# Conditions: HIT-T15 cells endogenously expressing GPR119; 30 min at 25° C.; intracellular cAMP
# Procedure, shortened: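 HIT-T15 cells (endogenous GPR119), 9000/well, exposed to agonist 30 min at 25° C with 0.5 mM IBMX and 0.5 mg/ml BSA. Lysate cAMP measured by chemiluminescent competitive immunoassay; EC50 from curve fit.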
row,EC50,Structure (SMILES)
1,0.26 µM,"CC(C)OC(=O)N1CCC(n2ncc3c(Oc4ccc(S(C)(=O)=O)cc4)ncnc32)CC1 [Example 21, 4-[4-(4-Methanesulfonyl-phenoxy)-pyrazolo[3,4-d]pyrimidin-1-yl]-piperidine-1-carboxylic acid isopropyl ester]"
2,0.018 µM,"CS(=O)(=O)c1ccc(Oc2ncnc3c2cnn3C2CCN(C(=O)OCC(Cl)(Cl)Cl)CC2)cc1 [Example 115, 4-[4-(4-Methanesulfonyl-phenoxy)-pyrazolo[3,4-d]pyrimidin-1-yl]-piperidine-1-carboxylic acid 2,2,2-trichloro-ethyl ester]"
3,0.11 µM,"CC(C)COC(=O)N1CCC(n2ncc3c(Oc4ccc(S(C)(=O)=O)cc4)ncnc32)CC1 [Example 106, 4-[4-(4-Methanesulfonyl-phenoxy)-pyrazolo[3,4-d]pyrimidin-1-yl]-piperidine-1-carboxylic acid isobutyl ester]"
4,0.24 µM,"Cc1nnnn1-c1ccc(Oc2ncnc3c2cnn3C2CCN(C(=O)OC(C)(C)C)CC2)cc1 [Example 84, 4-{4-[4-(5-Methyl-tetrazol-1-yl)-phenoxy]-pyrazolo[3,4-d]pyrimidin-1-yl}-piperidine-1-carboxylic acid tert-butyl ester]"
5,0.46 µM,"CC(=O)Nc1ccc(Oc2ncnc3c2cnn3C2CCN(C(=O)OC(C)C)CC2)cc1 [Example 25, 4-[4-(4-Acetylamino-phenoxy)-pyrazolo[3,4-d]pyrimidin-1-yl]-piperidine-1-carboxylic acid isopropyl ester]"
6,0.21 µM,"Cc1nn(C2CCN(C(=O)OC(C)C)CC2)c2ncnc(Oc3ccc(S(C)(=O)=O)cc3)c12 [Example 22, 4-[4-(4-Methanesulfonyl-phenoxy)-3-methyl-pyrazolo[3,4-d]pyrimidin-1-yl]-piperidine-1-carboxylic acid isopropyl ester]"
7,1.4 µM,"COc1ccccc1CN1CCC(n2ncc3c(Oc4ccc(S(C)(=O)=O)cc4)ncnc32)CC1 [Example 165, 4-(4-Methanesulfonyl-phenoxy)-1-[1-(2-methoxy-benzyl)-piperidin-4-yl]-1H-pyrazolo[3,4-d]pyrimidine]"
8,0.018 µM,"CCOc1ccc(Oc2ncnc3c2cnn3C2CCN(C(=O)OC(C)(C)C)CC2)c(F)c1 [Example 43, 4-[4-(4-Ethoxy-2-fluoro-phenoxy)-pyrazolo[3,4-d]pyrimidin-1-yl]-piperidine-1-carboxylic acid tert-butyl ester]"
9,0.34 µM,"N#Cc1ccccc1Oc1ncnc2c1cnn2C1CCN(C(=O)OC2CCCC2)CC1 [Example 118, 4-[4-(2-Cyano-phenoxy)-pyrazolo[3,4-d]pyrimidin-1-yl]-piperidine-1-carboxylic acid cyclopentyl ester]"
10,0.5 µM,"CS(=O)(=O)c1ccc(Oc2ncnc3c2cnn3C2CCN(C(=O)OC(C(F)(F)F)C(F)(F)F)CC2)cc1 [Example 112, 4-[4-(4-Methanesulfonyl-phenoxy)-pyrazolo[3,4-d]pyrimidin-1-yl]-piperidine-1-carboxylic acid 2,2,2-trifluoro-1-trifluoromethyl-ethyl ester]"
11,0.37 µM,"CC(C)(C)OC(=O)N1CCCC(n2ncc3c(Oc4ccc(S(C)(=O)=O)cc4)ncnc32)C1 (racemic) [Example 87, 3-[4-(4-Methanesulfonyl-phenoxy)-pyrazolo[3,4-d]pyrimidin-1-yl]-piperidine-1-carboxylic acid tert-butyl ester]"
12,2.2 µM,"Cc1ncccc1Nc1ncnc2c1cnn2C1CCN(C(=O)OC(C)(C)C)CC1 [Example 7, 4-[4-(2-Methyl-pyridin-3-ylamino)-pyrazolo[3,4-d]pyrimidin-1-yl]-piperidine-1-carboxylic acid tert-butyl ester]"
13,0.044 µM,"CC(C)(OC(=O)N1CCC(n2ncc3c(Oc4ccc(S(C)(=O)=O)cc4)ncnc32)CC1)C(Cl)(Cl)Cl [Example 114, 4-[4-(4-Methanesulfonyl-phenoxy)-pyrazolo[3,4-d]pyrimidin-1-yl]-piperidine-1-carboxylic acid 2,2,2-trichloro-1,1-dimethyl-ethyl ester]"
14,0.85 µM,"CCCCOC(=O)N1CCC(n2ncc3c(Oc4cccnc4C)ncnc32)CC1 [Example 104, 4-[4-(2-Methyl-pyridin-3-yloxy)-pyrazolo[3,4-d]pyrimidin-1-yl]-piperidine-1-carboxylic acid butyl ester]"
15,1.9 µM,"CC(C)(C)OC(=O)N1CCC(n2ncc3c(Oc4ccc5[nH]ccc5c4)ncnc32)CC1 [Example 74, 4-[4-(1H-Indol-5-yloxy)-pyrazolo[3,4-d]pyrimidin-1-yl]-piperidine-1-carboxylic acid tert-butyl ester]"
16,3 µM,"Cc1cc(=O)oc2cc(Oc3ncnc4c3cnn4C3CCN(C(=O)OC(C)(C)C)CC3)ccc12 [Example 76, 4-[4-(4-Methyl-2-oxo-2H-chromen-7-yloxy)-pyrazolo[3,4-d]pyrimidin-1-yl]-piperidine-1-carboxylic acid tert-butyl ester]"

# Tested on: C57B1/6J mice
# Test: oral glucose tolerance test (OGTT) in C57B1/6J mice
# Assay type: in vivo
# Conditions: 30 mg/kg oral gavage, 2 g/kg glucose bolus two hours after dosing; vs vehicle treated mice
# Procedure: The in vivo activity of selected compounds of the invention was characterized using an oral glucose tolerance test in C57B1/6J mice.
# C57B1/6J mice were obtained from Jackson Laboratory (Bar Harbor, Me.) and were maintained in a light-dark cycle with lights on from 0600-1800 hr. The mice were received at age nine weeks and given ad libitum access to diet (LabDiet 5001 chow, PMI Nutrition, Brentwood, Mo.), and were at age 10 weeks at the time of study The experiments were conducted during the light phase of the light-dark cycle. Mice (n=10) were weighed and fasted for a four hour period prior to treatment with GPR119 agonists or formulation vehicle via oral gavage. GPR119 agonists were formulated in Klucel vehicle (2% Klucel LF with 0.1% Tween 80, in water) at a concentration of 4.0 mg/mL and the mice were dosed with a 7.5 mL/kg volume to equal a 30 mg/kg dose. Two hours following dosing, the animals were given an oral glucose tolerance test (OGTT). For the OGTT, the animals were given a 2 g/kg glucose bolus via oral gavage. Blood glucose readings were made immediately prior to the glucose challenge, and 30, 60 and 120 minutes following. […] Area under the curve (AUC) for plots of blood glucose vs. time for the individual mice was calculated by the trapezoidal method. […]
row,Structure (SMILES),decrease in mean baseline-subtracted AUC (blood glucose vs. time)
1,"CC(C)OC(=O)N1CCC(n2ncc3c(Oc4ccc(S(C)(=O)=O)cc4)ncnc32)CC1 [Example 21, 4-[4-(4-Methanesulfonyl-phenoxy)-pyrazolo[3,4-d]pyrimidin-1-yl]-piperidine-1-carboxylic acid isopropyl ester]",44%
